Results from patent publication US7682785B2, “Method for predicting effectiveness of chemotherapy using anticancer agent” (Sysmex Corporation, priority 2005, dated 2010).
Where “and” joins values, the source holds several entries; their conditions need not be identical. Equal entries are not always repeated.

Experiments:
[1] = system: human-derived breast cancer cultured cells (cell A); assay: Effect of anticancer agent therapy for cancerous mice (change in tumor size), cell A heterograft; format: in vivo; conditions: cell A implanted subcutaneously in mice; 20 mg/kg once a day for 5 days; tumor size to the 11th day
Procedure: (§1) 5 kinds of human-derived breast cancer cultured cells (cells A to E) were subcutaneously implanted on the backs of forty-six mice (No. 1 to 46). The mice were raised for 21 to 28 days to engraft the breast cancer cells. […] Upon lapse of 24 hours after the administration, tissues (about 50 mg) in the size of 2.5 mm×2.5 mm was cut from the back of each mouse. Each of the tissues were homogenized using an electric homogenizer to dissolve dissolvable components in a buffer solution containing 0.1 w/v % nonidet P-40 (NP-40) (Calbiochem), 50 mM tris-HCl (pH: 7.4), 5 mM EDTA, 50 mM sodium fluoride, 1 mM sodium orothovanadate, and 100 μl/ml of protease inhibitor cocktail (Sigma, St. Louis, Mo.).
(§2) The tumor size was measured from the start of the administration to the 11th day after the start of the administration. The chemotherapeutic effectiveness was classified, according to the change in tumor size, into Type I (high chemosensitivity), Type II (medium chemosensitivity), Type III (slightly low chemosensitivity), and Type IV (low chemosensitivity). […] The classification results are shown in the column of “Effect of therapy” in Table 1.

CDK1 = CDK1 specific activity in tumor tissue lysate of mouse heterograft after paclitaxel administration; format: in vivo, human; conditions: 24 hours after 20 mg/kg single administration, one value per mouse
Procedure: A tissue specimen containing target tumor cells was prepared in a 1.5 ml-Eppendorf tube so that 100 μg lysate in terms of total protein mass was dissolved in a buffer solution of 500 μl. To the buffer solution, added were sepharose beads (Bio-Rad, Calif., U.S.A.) coated with 20 μl of a protein A and 2 μg of antibodies specific to the CDK whose activity was to be measured, i.e. polyclonal anti-CDK1-antibodies or polyclonal anti-CDK2-antibodies (Santa Cruz Biotechnology, Santa Cruz, Calif.). After the addition, the solution was reacted at 4° C. for 1 hour. Thereafter, the beads were washed with a buffer solution (0.1% NP-40 and 50 mM tris-HCl adjusted pH 7.0) three times, followed by re-suspension in a kinase buffer of 15 μl. Thus, a sample containing the beads to which the target CDK binds was yielded.
(§3) In the sample, all the CDK (hereinafter, if distinction is not necessary, simply called as “CDKs”) including CDK itself, activated CDK to which cycline binds, complexes of activated CDK and CDK inhibitor, and complexes of CDK and CDK inhibitor were bound to the antibodies, thereby fixing the CDKs to the beads. The activity of the CDKs in the sample was measured by the following measurement method.
(§4) Prepared was a substrate solution containing 5 mM adenosine 5′-O-([…]) (ATP-γS (Sigma)), a buffer solution (20 mM tris-HCl (pH: 7.4), 0.1% Triton-X-100), and 10 μg histon H1 (Upstate Biotechnology, Lake Placid, N.Y.) as a substrate for CDK1 and CDK2. The substrate solution was added to the aforementioned sample solution containing the CDKs up to the total volume of 50 μl. The resulting sample solution was shaken for 10 minutes at 37° C. for incubation. As shown by the following formula, serine or threonine residue in the substrate was phosphorylated by the activated CDK, and monothiophosphorylated substrate was yielded.
(§5) After the reaction, the sample solution was centrifuged at 20,000 rpm for 20 seconds to precipitate the beads, and 18 μl of a supernatant in which monothiophosphates were dissolved was obtained. To 18 μl of the supernatant, added was 15 μl of a buffer solution (150 mM tris-HCl (pH: 9.2) and 5 mM EDTA). Further, the resultant solution was incubated in 10 mM iodoacetyl biotin solution (100 mM tris-HCl (pH: 7.5) and 1 mM EDTA) in a dark place for 90 minutes at room temperature. Thereby, sulfur ions in the thiophosphates in the monothiophosphorylated substrate were labeled by biotinylation. The reaction of the iodoacetyl biotin with the thiophosphates was stopped by adding […].
0.4 μg of the biotinylated thiophosphorylated substrate was blotted on a PVDF membrane by using a slot blotter for adsorption. The blotted membrane was blocked with 1% of bovine serum albumin (BSA) for 30 minutes, followed by reaction with avidin-FITC (Vector, Burlingame, Calif.) at 37° C. for 1 hour. […] After the washing, the image on the membrane was analyzed by a fluorescent image analyzer (Bio-Rad, Calif. U.S.A.). The activity of the CDKs was calculated based on a standard curve.
The standard curve was created by adsorbing a protein (biotinylated immunoglobulin) of a known amount to a PVDF membrane, labeling the protein with FITC in the same manner as mentioned above, and measuring the fluorescent intensity of the protein by the fluorescent image analyzer (Bio-Rad). 1 U of the CDK activity to be measured is a value representing the fluorescent intensity substantially equivalent to the fluorescent amount of the target protein of 1 ng. […]

[2] = system: human-derived breast cancer cultured cells (cell C); assay: Effect of anticancer agent therapy for cancerous mice (change in tumor size), cell C heterograft; format: in vivo; conditions: cell C implanted subcutaneously in mice; 20 mg/kg once a day for 5 days; tumor size to the 11th day
Procedure: as §1, §2

[3] = system: human-derived breast cancer cultured cells (cell D); assay: Effect of anticancer agent therapy for cancerous mice (change in tumor size), cell D heterograft; format: in vivo; conditions: cell D implanted subcutaneously in mice; 20 mg/kg once a day for 5 days; tumor size to the 11th day
Procedure: as §1, §2

[4] = system: human-derived breast cancer cultured cells (cell E); assay: Effect of anticancer agent therapy for cancerous mice (change in tumor size), cell E heterograft; format: in vivo; conditions: cell E implanted subcutaneously in mice; 20 mg/kg once a day for 5 days; tumor size to the 11th day
Procedure: as §1, §2

CDK2 = CDK2 specific activity in tumor tissue lysate of mouse heterograft after paclitaxel administration; format: in vivo, human; conditions: 24 hours after 20 mg/kg single administration, one value per mouse
Procedure: A tissue specimen containing target tumor cells was prepared in a 1.5 ml-Eppendorf tube so that 100 μg lysate in terms of total protein mass was dissolved in a buffer solution of 500 μl. […] After the addition, the solution was reacted at 4° C. for 1 hour. Thereafter, the beads were washed with a buffer solution (0.1% NP-40 and 50 mM tris-HCl adjusted pH 7.0) three times, followed by re-suspension in a kinase buffer of 15 μl. Thus, a sample containing the beads to which the target CDK binds was yielded.
as §3, §4, §5
0.4 μg of the biotinylated thiophosphorylated substrate was blotted on a PVDF membrane by using a slot blotter for adsorption. The blotted membrane was blocked with 1% of bovine serum albumin (BSA) for 30 minutes, followed by reaction with avidin-FITC (Vector, Burlingame, Calif.) at 37° C. for 1 hour. Thereafter, the membrane was washed with 50 mM TBS (25 mM tris-HCl (pH: 7.4) and 150 mM NaCl) for 10 minutes three times. After the washing, the image on the membrane was analyzed by a fluorescent image analyzer (Bio-Rad, Calif. U.S.A.). The activity of the CDKs was calculated based on a standard curve.
The standard curve was created by adsorbing a protein (biotinylated immunoglobulin) of a known amount to a PVDF membrane, labeling the protein with FITC in the same manner as mentioned above, and measuring the fluorescent intensity of the protein by the fluorescent image analyzer (Bio-Rad). 1 U of the CDK activity to be measured is a value representing the fluorescent intensity substantially equivalent to the fluorescent amount of the target protein of 1 ng.
An initialized PVDF membrane (Millipore, Billerica, Mass.) obtained by immersing the membrane in TBS (25 mM tris-HCl (pH: 7.4) and 150 mM NaCl) was set to a well plate for slot blotter. […]

p21 = assay: Expression level of p21 (WAF1 ELISA) in tumor tissue lysate of mouse heterograft after paclitaxel administration; format: in vivo, human; set-up: unit not given here; conditions: 24 hours after 20 mg/kg single administration, one value per mouse
Procedure: Expression level of p21 is measured using CALIBIOCHEM p21 WAF 1 ELISA kit (EMD Bioscience Inc.).
WAF1 sample solutions (mixture solutions of specimen and WAF1 standard solution containing lyophilized WAF1) were prepared by diluting the WAF1 standard solution (20 unit/ml lyophilized WAF1) stepwise with the cell lysate as the specimen. In each of the sample solutions, the cell lysate was diluted 4-times or more.
Into 96-well plastic plate in which rabbit polyclonal antibodies (primary antibody) specific to WAF1 was coated, 100 μl each of the WAF1 sample solution and the WAF1 standard solution were individually seeded into the wells. The well plate was sealed and incubated at room temperature for 2 hours for reaction with the primary antibody.
After the well plate was washed with a cleaning buffer, which was prepared by adding 25 ml of a 20-times concentrated solution to 475 ml de-ionized water, three times, 100 μl of antibodies (biotinylated anti-WAF1 monoclonal antibodies) for detection of […] were added to each well. Thereafter, the well plate was sealed and allowed to react at room temperature for 1 hour.
After the reaction, the well plate was washed with the cleaning buffer three times, and then, 100 μl of a peroxidase-conjugated streptavidine diluent was added into each well, and the mixture was stirred moderately. Thereafter, the well plate was sealed and allowed to react at room temperature for 30 minutes. After reaction, unbound peroxidase-conjugated streptavidine was removed by washing with the cleaning buffer three times. And then, 100 μl of a substrate solution (pigment source substrate) was added into each well, and the mixture was reacted at room temperature for 30 minutes. Upon lapse of 30 minutes after the addition, 100 μl of a stop solution (2.5 N sulfuric acid) was poured into each well to stop the reaction. Then, absorbance of each well's contents was measured using a plate reader at dual wavelength of 450/540 nm.
The concentration of p21WAF1 in the WAF1 sample solutions was calculated based on a standard curve of the WAF1 standard solution.
as §1
After removing insoluble components by centrifuging at 15,000 rpm for 5 minutes at 4 ° C., the obtained supernatants (cell lysates) were used as specimens.
Activity and expression level of CDK1 and CDK2 respectively were measured with respect to the specimens obtained in the experiment (1) in accordance with the aforementioned measurement method, and the specific activity of CDK1 and the specific activity of CDK2 in the specimens were calcurated. Also, the expression level of p21 in the specimens was measured in accordance with the aforementioned measurement method.

[5] = system: human-derived breast cancer cultured cells (cell B); assay: Effect of anticancer agent therapy for cancerous mice (change in tumor size), cell B heterograft; format: in vivo; conditions: cell B implanted subcutaneously in mice; 20 mg/kg once a day for 5 days; tumor size to the 11th day
Procedure: as §1, §2

`CC(=O)O[C@H]1C(=O)[C@@]2(C)[C@H]([C@H](OC(=O)c3ccccc3)[C@]3(O)C[C@H](OC(=O)[C@H](O)[C@@H](NC(=O)c4ccccc4)c4ccccc4)C(C)=C1C3(C)C)[C@]1(OC(C)=O)CO[C@@H]1C[C@@H]2O` [paclitaxel] was tested, and the “Therapy using anticancer agent: Effect of therapy” value (shortened to “Therapy using anticancer agent”) [1] was “Type I”, the “Specifc activity of CDK1” value (CDK1; cell A tumor tissue) was 11.79 mU/ng and 10.83 mU/ng and 17.50 mU/ng and 21.77 mU/ng and 16.12 mU/ng and 16.82 mU/ng and 13.55 mU/ng and the “Specifc activity of CDK1” value (CDK1; cell B tumor tissue) was 27.00 mU/ng and 31.56 mU/ng and 20.53 mU/ng and 13.39 mU/ng and 33.32 mU/ng and 32.01 mU/ng and 34.33 mU/ng and 34.21 mU/ng and 35.27 mU/ng and 25.40 mU/ng and 13.90 mU/ng. The “Specifc activity of CDK1” value (CDK1; cell C tumor tissue) was 25.48 mU/ng and 11.25 mU/ng and 22.64 mU/ng and 39.14 mU/ng and 21.35 mU/ng and 11.22 mU/ng and 13.77 mU/ng and 7.06 mU/ng and 16.60 mU/ng and 11.60 mU/ng and 15.29 mU/ng and 12.58 mU/ng and 41.80 mU/ng and 60.36 mU/ng and 36.09 mU/ng and 30.85 mU/ng, the “Specifc activity of CDK1” value (CDK1; cell D tumor tissue) was 10.75 mU/ng and 0.00 mU/ng and 7.10 mU/ng and 6.48 mU/ng and 22.16 mU/ng and 9.68 mU/ng and 10.04 mU/ng and the “Specifc activity of CDK1” value (CDK1; cell E tumor tissue) was 9.81 mU/ng and 2.45 mU/ng and 8.76 mU/ng and 7.92 mU/ng and 8.29 mU/ng. The “Therapy using anticancer agent” value [2] was “Type II”, the “Therapy using anticancer agent” value [3] was “Type III” and the “Therapy using anticancer agent” value [4] was “Type IV”. For the same compound, the “Specific activity of CDK2” value (CDK2; cell A tumor tissue) was 734.6 mU/ng and 634.1 mU/ng and 1083.2 mU/ng and 766.4 mU/ng and 407.1 mU/ng and 574.5 mU/ng and 545.0 mU/ng, the “Specific activity of CDK2” value (CDK2; cell B tumor tissue) was 156.2 mU/ng and 192.8 mU/ng and 109.1 mU/ng and 328.6 mU/ng and 64.8 mU/ng and 130.5 mU/ng and 171.6 mU/ng and 140.3 mU/ng and 157.9 mU/ng and 92.1 mU/ng and 41.9 mU/ng and the “Specific activity of CDK2” value (CDK2; cell C tumor tissue) was 163.6 mU/ng and 213.3 mU/ng and 209.9 mU/ng and 341.2 mU/ng and 106.9 mU/ng and 206.6 mU/ng and 140.6 mU/ng and 98.6 mU/ng and 114.8 mU/ng and 201.8 mU/ng and 129.9 mU/ng and 151.0 mU/ng and 138.8 mU/ng and 187.9 mU/ng and 124.6 mU/ng and 136.6 mU/ng. The “Specific activity of CDK2” value (CDK2; cell D tumor tissue) was 0.0 mU/ng (4×) and 80.1 mU/ng and 23.6 mU/ng, the “Specific activity of CDK2” value (CDK2; cell E tumor tissue) was 55.7 mU/ng and 50.2 mU/ng and 59.1 mU/ng and 0.0 mU/ng and 56.4 mU/ng and the “Expression level of p21” value (p21; cell A tumor tissue) was 1.43 and 1.34 and 1.93 and 1.28 and 0.00 and 0.86 and 1.26. For the same compound, the “Expression level of p21” value (p21; cell B tumor tissue) was 4.09 and 4.61 and 5.18 and 5.25 and 5.41 and 5.57 and 5.33 and 5.00 and 3.42 and 4.33 and 5.43, the “Expression level of p21” value (p21; cell C tumor tissue) was 1.06 and 1.44 and 0.00 (7×) and 1.31 and 0.85 and 0.77 and 0.64 and 0.57 and 0.53 and 0.29 and the “Expression level of p21” value (p21; cell D tumor tissue) was 8.76 and 7.21 and 7.62 and 7.34 and 6.39 and 5.40 and 0.74. For the same compound, the “Expression level of p21” value (p21; cell E tumor tissue) was 34.45 and 10.96 and 15.33 and 17.25 and 15.25 and the “Therapy using anticancer agent” value [5] was “Type II”.
